The test system of one data set is Plasmodium falciparum. Briefly: Antimalarial activity against chloroquine-resistant Plasmodium falciparum W2 assessed as reduction in malarial growth incubated for 72 hrs by Spectrophotometric analysis. The class given is functional, organism-based. The following applies: W2, 72 h.
Data set [1] is described as follows: Lipophilicity, logD of the compound at pH 7.4 by shake flask method. The settings on record: buffer. Type of data set: physicochemical.
The nature of data set [2]: Solubility of the compound at pH 7.4. The class given is physicochemical. The following applies: buffer.
The nature of data set [3]: Plasma protein binding in human assessed as free fraction incubated for 6 hrs by LC-MS/MS analysis. The class given is ADME, cell-free.
Data set [4] can be described thus: Metabolic stability in rat hepatocytes assessed as intrinsic clearance measured at 10^6 cells incubated for 5 to 120 mins by LC-MS/MS analysis. Type of data set: ADME, cell-based, Hepatocyte. The following applies: time 5-120 min, read-out: CLH.
Data set [5] is described as follows: Metabolic stability in human liver microsomes assessed as intrinsic clearance incubated for 0.5 to 30 mins by LC-MS/MS analysis. The class given is ADME, Microsome. The settings on record: time 0.5-30 min, read-out: CLH.
Data set [6] in a line: Clearance in mouse administered intravenously. Type of data set: ADME. The settings on record: in vivo, route iv.
Data set [7] in a line: Clearance in male CD1 mouse at 2 mg/kg, iv by LC-MS analysis. The class given is ADME, organism-based. The following applies: in vivo.
A short description of data set [8]: Half life in male CD1 mouse at 2 mg/kg, iv by LC-MS analysis. The following applies: in vivo. The class given is ADME, organism-based.
Data set [9] can be described thus: Cmax in male CD1 mouse at 50 mg/kg, po by LC-MS analysis. The following applies: in vivo. Type of data set: ADME, organism-based.
Data set [10] is described as follows: AUC in male CD1 mouse at 50 mg/kg, po by LC-MS analysis. Type of data set: ADME, organism-based. The following applies: in vivo.
Data set [11] in a line: Oral bioavailability in male CD1 mouse at 50 mg/kg by LC-MS analysis. The class given is ADME, organism-based. The following applies: in vivo.

Structures are written as SMILES. Converted amounts (≈) assume the structure as drawn.

Regarding `Cc1[nH]c2ccccc2c(=O)c1-c1ccc(Oc2ccc(OC(F)(F)F)cc2)cc1`, the IC50 with Plasmodium falciparum worked out at 0.092 µM. In data set [1], this compound showed a logD of 4.9. In addition, the solubility in data set [2] was found to be 3 µM (≈ 1.23 µg/mL). Further, the fraction unbound at 6 h in data set [3] is 0.0009. The hepatocyte CLint in [4] amounted to 6.17 µL/min/1e6 cells. Moreover, the microsomal CLint in [5] was below 3 µL/min/mg.

As for `COc1cc2[nH]c(C)c(-c3ccc(Oc4ccc(OC(F)(F)F)cc4)cc3)c(=O)c2cc1Cl`, the clearance in [6] amounted to 0.7 mL/min/kg.

For the compound `Cc1[nH]c2c(c(=O)c1-c1ccc(Oc3ccc(OC(F)(F)F)cc3)cc1)CCCC2`, in the data set on Plasmodium falciparum, the IC50 amounted to 0.157 µM. For the same compound, the logD in data set [1] was determined as 4.5. In data set [2], this compound showed a solubility of 0.2 µM (≈ 0.0831 µg/mL). In addition, the fraction unbound at 6 h in [3] is 0.0013. Further, the hepatocyte CLint in [4] was 9.05 µL/min/1e6 cells. Besides, the microsomal CLint in data set [5] was below 3 µL/min/mg.

For `Cc1[nH]c2c(c(=O)c1-c1ccc(Cl)cc1)CCCCC2`, in the data set on Plasmodium falciparum, the half-maximal inhibitory concentration (IC50) is 3.8 µM.

For the compound `Cc1[nH]c2c(c(=O)c1-c1ccc(F)cc1)CCCCC2`, the IC50 in the data set on Plasmodium falciparum is 4.97 µM.

For `Cc1[nH]c2c(c(=O)c1-c1ccc(F)cc1)CCOC2`, the IC50 in the data set on Plasmodium falciparum is 8.41 µM.

Take `Cc1[nH]c2c(c(=O)c1-c1ccc(Oc3ccc(OC(F)(F)F)cc3)cc1)CCCCC2`: the IC50 in the data set with Plasmodium falciparum came to 1.52 µM.

In the case of `Cc1[nH]c2c(c(=O)c1-c1ccc(Cl)cc1)CC(F)(F)CC2`, the IC50 in the data set with Plasmodium falciparum came out at 0.235 µM. This compound also came in with a logD in [1] of 2.7. Also, the solubility in [2] was found to be 20 µM (≈ 6.19 µg/mL). Moreover, in data set [3], the fraction unbound at 6 h stood at 0.12. Also, the hepatocyte CLint in data set [4] is below 1 µL/min/1e6 cells. For the same compound, in [5], the microsomal CLint is below 3 µL/min/mg. Besides, the clearance in [7] is 0.47 mL/min/kg. The same compound had a half-life in [8] of 6.39 h. The peak concentration (Cmax) in data set [9] turned out to be 28900 ng/mL. This compound came in with an AUC in [10] of 405 µg·h/mL. In [11], this compound yielded a bioavailability of 23.4%.

`Cc1[nH]c2c(c(=O)c1-c1ccc(-c3ccc(OC(F)(F)F)cc3)nc1)COCC2`: the IC50 in the data set with Plasmodium falciparum was above 10 µM.

As for `Cc1[nH]c2c(c(=O)c1-c1ccc(F)cc1)CCCC2`, in the data set on Plasmodium falciparum, the IC50 was 4.8 µM.

Take `Cc1[nH]c2c(c(=O)c1-c1ccc(-c3ccc(OC(F)(F)F)cc3)nc1)CCCC2`: the IC50 with Plasmodium falciparum was determined as 1.15 µM.

Turning to `Cc1[nH]c2c(c(=O)c1-c1ccc(Cl)cc1)CCCC2`, the half-maximal inhibitory concentration (IC50) with Plasmodium falciparum turned out to be 0.956 µM.

Consider `Cc1[nH]c2c(c(=O)c1-c1ccc(Cl)cc1)COCC2`, for which, in the data set with Plasmodium falciparum, the IC50 is above 10 µM.

For `Cc1[nH]c2c(c(=O)c1-c1ccc(F)cc1)COCC2`, in the data set on Plasmodium falciparum, the IC50 was above 10 µM.

Take `Cc1[nH]c2c(c(=O)c1-c1ccc(Oc3ccc(OC(F)(F)F)cc3)cc1)CC(F)(F)CC2`: the IC50 in the data set on Plasmodium falciparum was found to be 0.285 µM. The compound also returned a logD in [1] of 3.9. For the same compound, the concentration in solution in data set [2] (solubility) came to 2 µM (≈ 0.903 µg/mL). Besides, in [3], the fraction unbound at 6 h came out at 0.0029. Moreover, the hepatocyte CLint in data set [4] is below 1 µL/min/1e6 cells. Besides, the microsomal CLint in data set [5] is below 3 µL/min/mg.

With `Cc1[nH]c2c(c(=O)c1-c1ccc(Oc3ccc(OC(F)(F)F)cc3)cc1)COCC2`, the IC50 in the data set on Plasmodium falciparum was 0.528 µM. The compound further returned a logD in data set [1] of 3.8. Further, the concentration in solution in data set [2] (solubility) came to 140 µM (≈ 58.4 µg/mL). For the same compound, in [3], the fraction unbound at 6 h turned out to be 0.0065. Moreover, the hepatocyte CLint in [4] worked out at 2.63 µL/min/1e6 cells. Further, the microsomal CLint in [5] is below 3 µL/min/mg.

For `Cc1[nH]c2c(c(=O)c1-c1ccc(Oc3ccc(OC(F)(F)F)cc3)cc1)CCOC2`, the IC50 in the data set on Plasmodium falciparum is 0.446 µM.

As to `Cc1[nH]c2c(c(=O)c1-c1ccc(F)cc1)CC(F)(F)CC2`, the half-maximal inhibitory concentration (IC50) with Plasmodium falciparum came to 0.597 µM. The compound further yielded a log distribution coefficient (logD) in data set [1] of 1.7. Besides, the concentration in solution in [2] (solubility) came to 68 µM (≈ 19.9 µg/mL). The fraction unbound at 6 h in [3] was 0.3. Moreover, the hepatocyte CLint in [4] was below 1 µL/min/1e6 cells. Moreover, the microsomal CLint in data set [5] was below 3 µL/min/mg.

Regarding `Cc1[nH]c2c(c(=O)c1-c1ccc(OC(F)(F)F)cc1)CCCC2`, in the data set on Plasmodium falciparum, the IC50 was found to be 0.354 µM. Also, in [1], the logD is 3.3. Further, the solubility in data set [2] was 14 µM (≈ 4.53 µg/mL). In addition, in data set [3], the fraction unbound at 6 h stood at 0.15. Further, the hepatocyte CLint in data set [4] turned out to be 1.14 µL/min/1e6 cells. Moreover, in [5], the microsomal CLint is 25.6 µL/min/mg.
